The source of these data is PMC11154727, “Systematic Studies on the Anti-SARS-CoV-2 Mechanisms of Tea Polyphenol-Related Natural Products” (ACS Omega, 2024).

Test [1] concerns Brazil P.1 Gamma mutant SARS-CoV-2. Type of test: cell-based. The settings on record: read-out: EC50 γ strain.
The subject of test [2] is UK B.1.1.7 N501Y Alpha SARS-CoV-2. Type of test: cell-based. The settings on record: read-out: EC50 α strain.
In test [3] the target is T1, RBD/ACE2 interaction (UniProt P0DTC2+Q9BYF1, L452R/T478K). The experiment in a line: cell-based.
The target in test [4] is T1, RBD/ACE2 interaction. The settings on record: read-out: IC50 RBD/ACE2.

Read-outs that look alike come from different tables or passages of the source.

By EC50 is commonly meant the concentration at which the effect is half-maximal. Regarding `O=C(O[C@@H]1Cc2c(O)cc(O)cc2O[C@@H]1c1cc(O)c(=O)c2c(O)c(O)cc([C@H]3Oc4cc(O)cc(O)c4C[C@H]3OC(=O)c3cc(O)c(O)c(O)c3)c2c1)c1cc(O)c(O)c(O)c1` [TF3, theaflavin-3,3′-digallate], the EC50 in test [1] is 0.4 ± 0.2 µM; in test [2] it was 0.5 µM. On RBD/ACE2 interaction [3], `O=c1c(O)cc([C@H]2Oc3cc(O)cc(O)c3C[C@H]2O)cc2c([C@H]3Oc4cc(O)cc(O)c4C[C@H]3O)cc(O)c(O)c12` [theaflavin] returned an IC50 of 12.3 ± 1.1 µM. Turning to proanthocyanidin, the IC50 on RBD/ACE2 interaction [4] stood at 12.4 ± 1.1 µM.
